ChEMBL document CHEMBL1132549, “Design and structure-activity relationship of a new class of potent VEGF receptor tyrosine kinase inhibitors” (J Med Chem, 1999)
The source made the active and inactive calls. The calls are words filed in the database; no cut-off is given here.

What was measured:
[1] = Mouse plasma levels are obtained 24 hr after oral administration of 100 mg/kg of compound.; assay type: ADME, organism-based; parameters: dose 100 mg/kg, route oral; details: read-out: Plasma level
[2] = Mouse plasma levels are obtained 6 hr after oral administration of 100 mg/kg of compound.; assay type: ADME, organism-based; parameters: dose 100 mg/kg, route oral; details: read-out: Plasma level
[3] = biological target: Fibroblast growth factor receptor 1 (Homo sapiens, UniProt P11362)
Chain of Fibroblast growth factor receptor 1 (P11362 whole entry): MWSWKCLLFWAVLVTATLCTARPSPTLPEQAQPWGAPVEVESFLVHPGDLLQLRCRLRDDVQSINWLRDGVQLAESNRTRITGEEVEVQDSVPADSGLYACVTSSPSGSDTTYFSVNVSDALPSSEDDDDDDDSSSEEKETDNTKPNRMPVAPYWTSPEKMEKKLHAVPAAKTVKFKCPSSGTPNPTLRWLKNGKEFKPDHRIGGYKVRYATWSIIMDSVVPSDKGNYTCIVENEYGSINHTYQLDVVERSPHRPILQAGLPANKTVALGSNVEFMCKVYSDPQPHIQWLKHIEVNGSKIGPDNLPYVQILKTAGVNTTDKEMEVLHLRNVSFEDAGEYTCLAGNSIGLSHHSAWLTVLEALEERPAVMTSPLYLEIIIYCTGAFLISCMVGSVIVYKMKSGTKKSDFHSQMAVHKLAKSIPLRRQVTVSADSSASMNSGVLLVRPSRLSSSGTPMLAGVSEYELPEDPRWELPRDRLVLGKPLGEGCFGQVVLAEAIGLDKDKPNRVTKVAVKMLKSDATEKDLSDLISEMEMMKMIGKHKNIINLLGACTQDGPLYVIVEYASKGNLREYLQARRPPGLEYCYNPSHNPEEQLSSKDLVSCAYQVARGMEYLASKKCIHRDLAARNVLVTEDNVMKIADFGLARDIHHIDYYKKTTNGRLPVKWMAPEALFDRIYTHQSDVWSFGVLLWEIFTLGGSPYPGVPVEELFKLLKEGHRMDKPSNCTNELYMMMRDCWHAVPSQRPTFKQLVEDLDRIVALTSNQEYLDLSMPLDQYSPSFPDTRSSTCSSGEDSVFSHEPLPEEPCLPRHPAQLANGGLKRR

[4] = biological target: Vascular endothelial growth factor receptor 1 (Homo sapiens, UniProt P17948)
Chain of Vascular endothelial growth factor receptor 1 (P17948 whole entry): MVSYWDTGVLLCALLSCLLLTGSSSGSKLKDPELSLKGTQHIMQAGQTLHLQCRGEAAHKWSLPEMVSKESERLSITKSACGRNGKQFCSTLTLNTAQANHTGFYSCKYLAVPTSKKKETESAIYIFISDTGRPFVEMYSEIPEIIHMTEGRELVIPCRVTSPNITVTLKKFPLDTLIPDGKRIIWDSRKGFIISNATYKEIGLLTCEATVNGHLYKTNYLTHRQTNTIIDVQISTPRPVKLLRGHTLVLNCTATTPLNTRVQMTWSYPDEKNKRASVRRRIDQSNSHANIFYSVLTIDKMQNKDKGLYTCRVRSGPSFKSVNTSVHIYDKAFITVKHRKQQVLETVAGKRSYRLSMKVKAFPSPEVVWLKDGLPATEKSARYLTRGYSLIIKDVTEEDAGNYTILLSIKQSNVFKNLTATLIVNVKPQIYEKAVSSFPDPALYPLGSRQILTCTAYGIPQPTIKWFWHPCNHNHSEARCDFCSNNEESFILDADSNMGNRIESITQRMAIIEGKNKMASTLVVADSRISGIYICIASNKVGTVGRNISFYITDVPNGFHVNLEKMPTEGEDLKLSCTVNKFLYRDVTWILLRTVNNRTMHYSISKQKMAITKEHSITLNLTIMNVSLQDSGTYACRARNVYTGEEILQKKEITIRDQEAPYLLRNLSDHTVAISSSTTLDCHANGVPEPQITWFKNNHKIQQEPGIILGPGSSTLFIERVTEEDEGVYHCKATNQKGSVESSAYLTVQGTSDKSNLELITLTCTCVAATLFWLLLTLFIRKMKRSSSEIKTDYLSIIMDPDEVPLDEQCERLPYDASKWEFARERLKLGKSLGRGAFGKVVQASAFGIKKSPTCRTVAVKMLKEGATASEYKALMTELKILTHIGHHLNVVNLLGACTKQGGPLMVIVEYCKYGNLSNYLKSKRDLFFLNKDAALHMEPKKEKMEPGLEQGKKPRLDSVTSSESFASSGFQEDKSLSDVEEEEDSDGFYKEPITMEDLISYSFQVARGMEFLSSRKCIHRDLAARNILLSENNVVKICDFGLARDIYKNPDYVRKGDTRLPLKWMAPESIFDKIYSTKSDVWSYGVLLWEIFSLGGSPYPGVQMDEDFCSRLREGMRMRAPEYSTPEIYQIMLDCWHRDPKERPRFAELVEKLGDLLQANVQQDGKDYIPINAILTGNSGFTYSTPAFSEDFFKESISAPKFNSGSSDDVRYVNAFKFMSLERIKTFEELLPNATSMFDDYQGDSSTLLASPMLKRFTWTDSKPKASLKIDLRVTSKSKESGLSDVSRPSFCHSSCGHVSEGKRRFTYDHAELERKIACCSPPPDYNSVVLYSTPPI

[5] = biological target: Vascular endothelial growth factor receptor 2 (Homo sapiens, UniProt P35968)
Chain of Vascular endothelial growth factor receptor 2 (P35968 whole entry): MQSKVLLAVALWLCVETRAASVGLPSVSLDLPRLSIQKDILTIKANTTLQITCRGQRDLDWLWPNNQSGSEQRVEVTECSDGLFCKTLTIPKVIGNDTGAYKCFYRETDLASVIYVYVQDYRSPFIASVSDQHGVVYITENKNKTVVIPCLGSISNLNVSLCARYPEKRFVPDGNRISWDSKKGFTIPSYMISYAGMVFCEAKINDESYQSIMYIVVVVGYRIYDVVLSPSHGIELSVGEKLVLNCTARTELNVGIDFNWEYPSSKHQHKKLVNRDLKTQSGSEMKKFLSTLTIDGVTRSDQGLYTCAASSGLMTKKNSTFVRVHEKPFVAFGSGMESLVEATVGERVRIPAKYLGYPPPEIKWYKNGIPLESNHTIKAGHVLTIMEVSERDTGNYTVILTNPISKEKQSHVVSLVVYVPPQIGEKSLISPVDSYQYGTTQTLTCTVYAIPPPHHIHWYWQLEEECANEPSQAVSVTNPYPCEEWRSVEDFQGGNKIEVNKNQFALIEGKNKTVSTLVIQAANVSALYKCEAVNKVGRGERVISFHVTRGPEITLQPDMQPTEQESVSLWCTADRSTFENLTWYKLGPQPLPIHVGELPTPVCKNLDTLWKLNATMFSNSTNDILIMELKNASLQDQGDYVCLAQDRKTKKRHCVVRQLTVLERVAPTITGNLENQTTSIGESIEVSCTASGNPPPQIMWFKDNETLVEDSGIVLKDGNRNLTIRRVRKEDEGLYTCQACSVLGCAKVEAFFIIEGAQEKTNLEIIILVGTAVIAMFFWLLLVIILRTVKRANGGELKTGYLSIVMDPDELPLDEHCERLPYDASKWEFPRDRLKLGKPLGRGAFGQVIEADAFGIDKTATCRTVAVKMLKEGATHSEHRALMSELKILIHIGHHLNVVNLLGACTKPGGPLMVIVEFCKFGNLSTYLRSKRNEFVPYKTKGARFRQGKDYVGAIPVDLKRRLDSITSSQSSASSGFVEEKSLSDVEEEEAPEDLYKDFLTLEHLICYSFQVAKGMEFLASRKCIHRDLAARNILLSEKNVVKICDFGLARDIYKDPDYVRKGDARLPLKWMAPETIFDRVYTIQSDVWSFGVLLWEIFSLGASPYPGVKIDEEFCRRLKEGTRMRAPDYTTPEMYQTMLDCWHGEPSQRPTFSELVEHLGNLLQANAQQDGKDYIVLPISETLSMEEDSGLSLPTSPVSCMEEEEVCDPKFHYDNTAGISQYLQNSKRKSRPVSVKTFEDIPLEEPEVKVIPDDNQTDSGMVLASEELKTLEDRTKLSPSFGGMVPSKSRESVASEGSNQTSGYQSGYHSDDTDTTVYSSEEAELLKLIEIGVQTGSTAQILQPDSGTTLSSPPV

Rattus norvegicus [6] = experiment: Percent inhibition of VEGF-mediated estradiol benzoate-induced rat uterus weight gain at 100 mg/kg oral dose; NA is Not Active; assay type: functional, organism-based; parameters: dose 100 mg/kg
Rattus norvegicus [7] = experiment: Percent inhibition of VEGF-mediated estradiol benzoate-induced rat uterus weight gain at 60 mg/kg oral dose; assay type: functional
HUVEC = experiment: Inhibition of unstimulated HUVEC cell proliferation; assay type: functional, cell-based; details: Homo sapiens
[8] = biological target: Fibroblast growth factor receptor (Homo sapiens, UniProt P22607+P11362+P22455+P21802); details: huvec
[9] = biological target: Vascular endothelial growth factor receptor (Homo sapiens, UniProt P17948+P35916+P35968); details: huvec
Rattus norvegicus [10] = experiment: Percent inhibition of VEGF-mediated estradiol benzoate-induced rat uterus weight gain at 100 mg/kg oral dose; assay type: functional

Row | IC50 [3] [µM] | IC50 [4] [µM] | IC50 [5] [µM] | Compound | further results
1 | > 33 | 1.2 | 0.06 | COc1cc2c(Nc3ccc(Cl)cc3F)ncnc2cc1OCc1ccncc1 | –
2 | 19 | 1.1 | 0.04 | COc1cc2c(Nc3ccc(Cl)cc3F)ncnc2cc1OCCN1CCOCC1 | –
3 | 1.6 | 0.1 | 0.006 | COc1cc2c(Nc3ccc(Cl)cc3F)ncnc2cc1OCCN(C)c1ccncc1 | –
4 | 6.7 | – | 0.009 | COc1cc2c(Nc3ccc(Cl)cc3F)ncnc2cc1OCCCN1CCOCC1 | concentration at 24 h [1]: 0.8 µM; concentration at 6 h [2]: 4 µM; inhibition in vivo at 100 mg/kg (Rattus norvegicus [10]): 59%
5 | > 100 | 0.7 | 0.03 | COc1cc2c(Nc3ccc(Br)cc3F)ncnc2cc1OCCn1ccnn1 [ZD-4190 FREE BASE] | IC50 (HUVEC): > 10 µM; IC50 [8]: 1.5 µM
6 | – | 0.8 | – | COc1cc2ncnc(Nc3ccc(I)cc3F)c2cc1OC | –
7 | 1.5 | 0.3 | 0.04 | COc1cc2c(Nc3ccc(Cl)cc3F)ncnc2cc1OCCCCN1CCOCC1 | –
8 | 45 | 8.1 | 0.3 | COc1cc2c(Nc3ccc(C#N)cc3F)ncnc2cc1OCCn1ccnn1 | IC50 (HUVEC): > 10 µM; IC50 [8]: 3 µM; IC50 [9]: 0.6 µM
9 | 58 | 22 | 2.9 | COc1cc2ncnc(Nc3ccc(F)cc3F)c2cc1OC | –
10 | 27 | 0.4 | 0.007 | COCCOc1cc2ncnc(Nc3ccc(Cl)cc3F)c2cc1OC | concentration at 24 h [1]: < 0.1 µM; concentration at 6 h [2]: 12 µM; inhibition in vivo at 100 mg/kg (Rattus norvegicus [10]): 31%
11 | 7 | – | 0.1 | COc1cc2ncnc(Nc3ccc(Cl)cc3F)c2cc1OC | inhibition in vivo at 100 mg/kg (Rattus norvegicus [10]): 34%

More lines, now with the values behind:

Row | Compound | IC50 [3] [µM] | IC50 [4] [µM] | IC50 [5] [µM] | further results
12 | COc1cc2c(Nc3ccc(Cl)cc3F)ncnc2cc1OCCn1ccnc1 | – | – | – | concentration at 24 h [1]: < 0.1 µM; concentration at 6 h [2]: 11 µM
13 | COCC(=O)Nc1cc2ncnc(Nc3ccc(Cl)cc3F)c2cc1OC | > 50 | > 100 | > 100 | –
14 | COCCOc1cc2ncnc(Nc3cccc(O)c3)c2cc1OC | 7 | 0.03 | < 0.005 | inhibition (Rattus norvegicus [6]): inactive
15 | COc1cc2ncnc(Nc3cc(O)c(C)cc3F)c2cc1OC | 2.5 | 0.03 | 0.003 | concentration at 24 h [1]: < 0.2 µM; concentration at 6 h [2]: < 0.2 µM; inhibition in vivo at 60 mg/kg (Rattus norvegicus [7]): 80%
16 | COCCOc1cc2ncnc(Nc3ccc(Cl)cc3F)c2cc1OCCOC | > 100 | 0.9 | 0.06 | –
17 | COCC(=O)Nc1cc2ncnc(Nc3cc(O)c(C)cc3F)c2cc1OC | > 100 | 0.3 | 0.3 | –
18 | COCCOc1cc2nccc(Nc3cc(O)c(Cl)cc3F)c2cc1OC | 1.4 | 0.003 | < 0.002 | –
19 | COc1cc2ncnc(Nc3ccc(I)cc3Cl)c2cc1OC | – | > 33 | – | –
20 | COCCOc1cc2nncc(Nc3cc(O)c(Cl)cc3F)c2cc1OC | – | 0.05 | – | –
21 | COCCOc1cc2ncnc(Nc3cc(O)c(Cl)cc3F)c2cc1OC | 7.4 | < 0.002 | < 0.002 | concentration at 24 h [1]: < 0.1 µM; concentration at 6 h [2]: < 0.1 µM; IC50 (HUVEC): 5 µM; IC50 [8]: 0.8 µM; IC50 [9]: 0.004 µM
22 | COc1cc2ncnc(Nc3ccccc3F)c2cc1OC | > 100 | 26 | 2.7 | –
23 | COCCOc1cc2nncc(Nc3ccc(Cl)cc3F)c2cc1OC | – | 63 | – | –
24 | COc1cc2c(Nc3ccc(Cl)cc3F)ncnc2cc1OCCOCCN1CCOCC1 | 20 | 0.5 | 0.06 | concentration at 24 h [1]: < 0.1 µM; concentration at 6 h [2]: 11 µM
25 | COc1cc2ncnc(Nc3ccc(F)c(Cl)c3)c2cc1OC | > 100 | > 100 | 0.8 | –
26 | COCCOc1cc2nccc(Nc3ccc(Cl)cc3F)c2cc1OC | 9.3 | 0.3 | 0.01 | concentration at 6 h [2]: 3 µM
27 | COc1cc2c(Nc3c(F)cc(Br)cc3F)ncnc2cc1OCCn1ccnn1 | – | 0.8 | 0.04 | IC50 (HUVEC): 1 µM; IC50 [8]: 0.1 µM; IC50 [9]: 0.02 µM
28 | COCCOc1ccc2c(Nc3ccc(Cl)cc3F)ncnc2c1 | 16 | 1.5 | – | –
29 | COc1cc2c(Nc3ccc(Cl)cc3F)ncnc2cc1OCCn1ccnn1 | – | – | – | concentration at 24 h [1]: 10 µM; concentration at 6 h [2]: 49 µM; IC50 (HUVEC): 5 µM
30 | COc1cc2ncnc(Nc3cccc(O)c3)c2cc1OC | 11 | 0.2 | – | –
31 | COc1cc2c(Nc3ccc(Cl)cc3F)ncnc2cc1OC1CCN(C)CC1 | 40 | 15 | 1.5 | –
32 | COc1cc2ncnc(Nc3ccc(Cl)cc3)c2cc1OC | > 100 | 11 | 0.8 | –
